Data from patent US10688084B2 (priority 2016, dated 2020).
Where two headings read alike, the source gives them in different places.

Legend:
[1] = cited from earlier work
[2] = literature value; cited from earlier work
acute inflammation = conditions: literature value; cited from earlier work
Wistar rats [3] = conditions: prototype of RU 2513089; cited from earlier work
[4] = tested on: subacute (formalin) edema; conditions: prototype of RU 2513089; cited from earlier work
Wistar rats [5] = type: in vivo; conditions: for Analgesic effect, total/analgesic effect / Paw volume 0 hours / Paw volume 3 hours / Analgesic effect, %: 15 mg/kg
Protocol: In the study of analgesic properties of the formula I compound, were taken female and male Wistar rats aged 6-7 weeks with a body mass of 180-220 g. The number of animals in each group was 10.
[…] inflammation was modeled in rats by subplantar administration of 0.1 ml of a 1% solution of carrageenin (a sulfated polysaccharide from Irish sea moss) into the right hind paw. The substance was administered intragastrically using a gastric probe.
Inflammatory hyperalgesia (increased pain sensitivity of inflamed tissues in rats) was caused by carrageenin and was assessed by decrease of the pain sensitivity threshold—PST (by PST difference) to mechanical irritation (squeezing) of the paw tissue of the animal before the introduction of carrageenin and 3 hours after it. The measurement was performed on the inflamed paw. Used analgesimeter Ugo Basile S.R.L. (Italy) provides a gradual increased afterload on the rat's inflamed paw until a pain reaction appears (assessed by squeaking of animal or withdrawing the paw). The analyte was administered 2 h after carrageenin administration. […] An increase in the pain response threshold under the influence of the substances under study was expressed in an increase in the force of compression of the limb and characterized the intensity of the analgesic effect of the preparation. After the experiment, animals were euthanized by carbon dioxide inhalation method.
The introduction to rats was carried out in the amount of no more than 1 ml/100 g. The concentration of the resulting solution was 5 mg/ml.
(§1) To prepare a dose of 20 mg/kg, 40 ml of solution with a concentration of 5 mg/ml (50 mg/kg) were taken, transferred to a 100 ml measuring flask with accuracy class A, adjusted to 100 ml with 0.5% water solution of Tween-80 and the suspension was dispersed to a homogeneous consistency using a dispersant.
To prepare a dose of 10 mg/kg, 20 ml of solution with a concentration of 5 mg/ml (50 mg/kg) were taken, transferred to a 100 ml measuring flask with accuracy class A, adjusted to 100 ml with 0.5% aqueous solution of Tween-80 and the suspension was stirred to a homogeneous consistency with a magnetic stirrer MR Hei-Standard (Heidolph, Germany).
as §1, with “5” for “20”, “[…]” for “40”, “stirred” for “dispersed”, “with” for “using”, “magnetic stirrer.” for “dispersant.”

Wistar rats [6] = type: in vivo; conditions: for Δ t after 2 hours, (M ± SD) / Δ t after 3 hours, (M ± SD) / Δ t after 4 hours, (M ± SD) / Δ t after 5 hours, (M ± SD) / Δ t after 6 hours, (M ± SD) / Δ t after 7 hours, (M ± SD): 15 mg/kg
Protocol: In the study of antipyretic properties of the formula I compound, were taken female and male Wistar rats aged 6-7 weeks, with a body mass of 180-220 g. The number of animals in each group was 10.
The febrile reaction was caused by subcutaneous administration of a 20% suspension of baking yeast. The rectal temperature was measured with an electrothermometer prior to the introduction of yeast and 18 hours after it (the difference of these measurements is the estimated hyperthermic reaction). The preparation was administered to animals at the peak of hyperthermia once (after 18 hours). The antipyretic effect was evaluated by hyperthermia decrease 2 hours after the injection of the test substance, and then the effect dynamics was recorded at hourly intervals for 7 hours.
The introduction to rats was carried out in the amount of no more than 1 ml/100 g. The concentration of the resulting solution was 7.5 mg/ml.
The difference in temperature after preparation administration and after 18 hours of induction with yeast was taken as the parameter of hyperthermia decrease.
Animals were observed individually after administration throughout the study. […] Wilcoxon nonparametric criterion was used for statistical comparison of experimental groups. Differences were determined at the 0.05 level of significance. The statistical analysis was carried out using the R-studio program.

cyclooxygenase (COX) = assay: COX activity assay (fluorometric kit, peroxidase activity) with skin fibroblast (HSF) cell lysate; type: biochemical; conditions: fibroblast cell lysate, 1.25 to 20 μM in the well

## 2-[(2,6-dichlorophenyl) amino] benzene acetic acid [Diclofenac sodium]
[1]; literature value
  UD50: 48 mg/kg

## CC(C)Cc1ccc(C(C)C(=O)O)cc1 (racemic) [Ibuprofen, (RS)-2-(4-isobutylphenyl) propionic acid]
[1]; literature value
  UD50: 310 mg/kg
[2]
  LD50: 750 mg/kg
Acute inflammation
  ED50 acute inflammation: 48 mg/kg

## COc1ccc2cc([C@H](C)C(=O)OCc3cnc(C)c(OC(=O)[C@@H](C)c4ccc5cc(OC)ccc5c4)c3COC(=O)[C@@H](C)c3ccc4cc(OC)ccc4c3)ccc2c1 [(2S,2'S)-(5-((S)-2-(6-methoxinaft-2-yl)propanoiloxy)-6-methylpyridine-3,4-diyl) bis (methylene) bis (2-(6-methoxynaphth-2-yl) propanoate)]
Wistar rats [3]
  Efficacy on the model of acute (carrageenin) edema in vivo: not effective enough
[4]
  Efficacy on the model of subacute (formalin) edema in vivo: pronounced anti-inflammatory effect

## CC(=O)Oc1ccccc1C(=O)O [Acetylsalicylic acid]
[1]; literature value
  UD50: 240 mg/kg
  UD50/ED50 (safety index): 2.45
[2]
  LD50: 1600 mg/kg
  LD50/ED50 (therapeutic index): 16
Acute inflammation
  ED50 acute inflammation: 98 mg/kg

## COc1ccc2c(c1)c(CC(=O)O)c(C)n2C(=O)c1ccc(Cl)cc1 [Indomethacin, 1-(4-chlorobenzoyl)-5-methoxy-2-methyl-1H-indol-3-acetic acid]
[1]; literature value
  UD50: 10 mg/kg
  UD50/ED50 (safety index): 1
[2]
  LD50: 47 mg/kg
  LD50/ED50 (therapeutic index): 4.7
Acute inflammation
  ED50 acute inflammation: 10 mg/kg

## COc1ccc2cc([C@H](C)C(=O)O)ccc2c1 [Naproxen, (S)-6-methoxy-α-methyl-2-naphthalenacetic acid, reference compound]
[1]; literature value
  UD50: 49 mg/kg
Wistar rats [5]; females
  Analgesic effect, total/analgesic effect: 10/7
  Paw volume 0 hours: 5.0 ± 6.2
  Paw volume 3 hours: 5.0 ± 3.2
Wistar rats [5]; females, control = 100.0
  Analgesic effect, %: 195.3 ± 125.3%
Wistar rats [5]; intragastric
  Dose at which a pronounced anesthetic effect is exhibited: 15 mg/kg
Wistar rats [5]; males
  Analgesic effect, total/analgesic effect: 10/7
Wistar rats [5]; rat, in vivo
  Analgesic effect, %: 234.5 ± 160.2%
  Paw volume 0 hours: 5.0 ± 2.9
  Paw volume 3 hours: 6.7 ± 4.6
Wistar rats [6]; 15 mg/kg (or 65 μmol/kg)
  Level of temperature decrease: 0.74-1.6 °C
Wistar rats [6]; females
  Δ t after 2 hours, (M ± SD): 1.64
  Δ t after 3 hours, (M ± SD): 1.35
  Δ t after 4 hours, (M ± SD): 1.58
  Δ t after 5 hours, (M ± SD): 1.21
  Δ t after 6 hours, (M ± SD): 1.09
  Δ t after 7 hours, (M ± SD): 0.74
Wistar rats [6]; males
  Δ t after 2 hours, (M ± SD): 1.39
  Δ t after 3 hours, (M ± SD): 1.49
  Δ t after 4 hours, (M ± SD): 1.6
  Δ t after 5 hours, (M ± SD): 1.51
  Δ t after 6 hours, (M ± SD): 1.53
  Δ t after 7 hours, (M ± SD): 1.44
Cyclooxygenase (COX)
  IC50: 9.56 µM
Acute inflammation
  ED50 acute inflammation: 15 mg/kg

## CCCCC1C(=O)N(c2ccccc2)N(c2ccccc2)C1=O [Phenylbutazone]
[1]; literature value
  UD50: 120 mg/kg

## CN1C(C(=O)Nc2ccccn2)=C(O)c2ccccc2S1(=O)=O [Pyroxicam]
[1]; in vivo
  UD50: 36 mg/kg
[1]; literature value
  UD50/ED50 (safety index): 1.8
[2]
  LD50: 290 mg/kg
  LD50/ED50 (therapeutic index): 15
Acute inflammation
  ED50 acute inflammation: 20 mg/kg
